Experimental data: doi:10.1101/2019.12.11.872838v1 (biorxiv, 2019)

Molecular target: KDM1A (Homo sapiens, UniProt O60341)
Test: ALPHA screen demethylation assay
Type: biochemical

IC50: > 10 µM
SMILES: CO[C@H]1/C=C\C=C(/C)C(=O)NC2=CC(=O)C(NCCN(C)C)=C(C[C@@H](C)C[C@H](OC)[C@H](O)[C@@H](C)/C=C(\C)[C@@H]1OC(N)=O)C2=O [17-DMAG]
